Experiments:
[1] = tested on: statin-intolerant patients with or at high risk of CVD; experiment: CLEAR OUTCOMES trial (Example 1): adverse events and safety laboratory findings; type: in vivo, human
Excerpt: (§1) The CLEAR OUTCOMES trial was a randomized, placebo-controlled, double-blind trial that enrolled patients at 1250 sites in 32 countries. An independent Data Monitoring Committee reviewed safety and efficacy data during the trial.
(§2) Patients 18 to 85 years of age were eligible for enrollment if they met either of two criteria for increased cardiovascular risk, a prior cardiovascular event (secondary prevention) or clinical features that placed them at high risk for a cardiovascular event (primary prevention). (Nicholls S. Lincoff A M, Bays H E, et al. Rationale and design of the CLEAR-outcomes trial: Evaluating the effect of bempedoic acid on cardiovascular events in patients with statin intolerance. Am Heart J. 2021 May; 235:104-112) All patients provided written informed consent. Patients had to report statin intolerance due to an adverse effect that started or increased during statin therapy and resolved or improved after statin therapy was discontinued. Patients could be enrolled if they tolerated a very low average daily statin dose (e.g., an average daily dose of rosuvastatin <5 mg, atorvastatin <10 mg, simvastatin <10 mg, lovastatin <20 mg, pravastatin <40 mg, fluvastatin <40 mg, or pitavastatin <2 mg). Other lipid-lowering therapies were permitted, including ezetimibe, niacin, bile acid resins, fibrates, and/or proprotein convertase subtilisin kexin type 9 (PCSK9) inhibitors. Full inclusion and exclusion criteria are provided in Nicholls et al. (Am Heart J. 2021).
(§3) Eligible patients entered a 4-week run-in period during which patients were treated with single-blind placebo. If patients were intolerant to placebo treatment or if adherence was <80% by tablet count, they were not eligible for randomization. Patients who successfully completed the run-in period were randomly assigned in a 1:1 ratio to receive bempedoic acid at an oral dose of 180 mg or matching placebo, administered daily. Beginning 6 months after enrollment, the central laboratory notified the investigator if the patient's LDL-cholesterol level was ≥25% higher than baseline. These patients were counseled on healthy dietary guidelines and reminded to take all lipid-regulating medications. If repeat testing confirmed that LDL-cholesterol value met the threshold criteria, the provider could adjust the lipid-lowering treatment regimen per standard of care and local guidelines.

[2] = tested on: statin-intolerant patients with or at high risk of CVD; experiment: CLEAR OUTCOMES trial (Example 1): effect on LDL-cholesterol, hsCRP, other lipids and glycaemic biomarkers; type: in vivo, human
Excerpt: as §1, §2, §3
This was an event-driven trial designed to provide at least 90% power to detect a 15% relative risk reduction for the primary composite end point at an overall two-sided significance level of 0.05. The trial required a minimum of 1620 primary composite events with ≥24 months of follow-up for all patients and at least 810 first key secondary end points. The average treatment duration was estimated to be 42 months and a lost-to-follow-up rate of 1% per year. Assuming a 3.59% annual event rate in the placebo group, enrollment of 12,600 patients was required, subsequently amended to 14,000. There were no interim efficacy analyses. A hierarchical approach was prespecified to evaluate sequentially each of the six key secondary efficacy end points with statistical significance at each step required to test the next hypothesis, thereby preserving the study-wise Type I error rate at 5%. All analyses were based on the intent-to-treat principle. The primary efficacy end point was analyzed using Cox proportional hazards model with treatment as a factor to generate the hazard ratio (HR) and 95% confidence interval (CI). The p-value was obtained from a log-rank test.

[3] = at any visit, repeated and confirmed, N = 7001
[4] = baseline mean 139.0 mg/dL, full population

SMILES: CC(C)(CCCCCC(O)CCCCCC(C)(C)C(=O)O)C(=O)O [Bempedoic Acid, Bempedoic acid]
- New onset diabetes in patients with normoglycemia at baseline, % ([1]; 180 mg oral daily): 5.5%
- New onset diabetes in patients with pre-diabetes at baseline, % ([1]; 180 mg oral daily): 19.5%
- Adjudicated tendon rupture, % ([1]; 180 mg oral daily, N = 7001): 1.2%
- Adverse event leading to drug discontinuation, % ([1]; 180 mg oral daily, N = 7001): 11.0%
- Any muscle disorder, % ([1]; 180 mg oral daily, N = 7001): 15.0%
- Any treatment emergent adverse event, % ([1]; 180 mg oral daily, N = 7001): 86.3%
- Atrial fibrillation, % ([1]; 180 mg oral daily, N = 7001): 3.3%
- Cholelithiasis, % ([1]; 180 mg oral daily, N = 7001): 2.2%
- Discontinuation of treatment due to myalgia, % ([1]; 180 mg oral daily, N = 7001): 1.8%
- Elevated hepatic enzymes, % ([1]; 180 mg oral daily, N = 7001): 4.5%
- Gout, % ([1]; 180 mg oral daily, N = 7001): 3.1%
- Hypoglycemia, % ([1]; 180 mg oral daily, N = 7001): 4.3%
- Malignancies, % ([1]; 180 mg oral daily, N = 7001): 4.7%
- Metabolic acidosis, % ([1]; 180 mg oral daily, N = 7001): 0.2%
- Myalgia, % ([1]; 180 mg oral daily, N = 7001): 5.6%
- Neurocognitive disorders, % ([1]; 180 mg oral daily, N = 7001): 0.8%
- Serious treatment emergent adverse event, % ([1]; 180 mg oral daily, N = 7001): 25.4%
- Tendinopathies, % ([1]; 180 mg oral daily, N = 7001): 1.7%
- Change from baseline in creatinine levels ([1]; after 6 months): 0.05 ± 0.2 mg/dL
- Change from baseline in uric acid levels ([1]; after 6 months): 0.76 ± 1.2 mg/dL
- Creatine kinase levels >5x ULN (repeated and confirmed), % ([1]; at any visit, N = 7001): 0.1%
- Creatine kinase levels >5x ULN (single occurrence), % ([1]; at any visit, N = 7001): 0.6%
- Alanine aminotransferase level >3 times ULN, % [1, 3]: 1.2%
- Aspartate aminotransferase level >3 times ULN, % [1, 3]: 1.1%
- Premature discontinuation of study drug ([1]; bempedoic acid-treated patients, full population): 29.1%
- Worsening hyperglycemia, % ([1]; in patients with diabetes at baseline): 22.7%
- New onset diabetes in patients without diabetes at baseline, % ([1]; investigator-reported, 180 mg oral daily): 16.1%
- tolerability of treatment ([1]; rates of discontinuation for any reason similar to placebo): well tolerated
- placebo-subtracted reduction in LDL-cholesterol after 6 months of treatment [2, 4]: 29.2 mg/dL
- placebo-subtracted reduction in LDL-cholesterol after 6 months of treatment, percent [2, 4]: 21.1%
- Change from baseline to month 12 in HbA1C in patients with inadequately controlled type 2 diabetes mellitus, Difference ([2]; bempedoic acid vs placebo): −0.03%
- Change from baseline to Month 6 in HbA1c (%), All patients ([2]; observed mean ± SD): −0.003 ± 0.6^ %
- Change from baseline to Month 6 in HbA1c (%), Inadequately Controlled Diabetes at Baseline ([2]; observed mean ± SD): −0.20 ± 1.0%
- Change from baseline to Month 12 in HbA1c (%), All patients ([2]; observed mean ± SD): 0.04 ± 0.74%
- Change from baseline to Month 12 in HbA1c (%), Inadequately Controlled Diabetes at Baseline ([2]; observed mean ± SD): −0.06 ± 1.3%
- decrease in LDL-C as compared to baseline ([2]; prior to initial administration as baseline): about 21%
- time-averaged reduction in LDL-cholesterol, percent ([2]; vs placebo, over the trial, full population): 15.9%
